Reference: ChEMBL document CHEMBL3994622, “Design and synthesis of new RAF kinase-inhibiting antiproliferative quinoline derivatives. Part 2: Diarylurea derivatives” (Eur J Med Chem, 2017)
pIC50: −log10 of the molar value.

How the values were obtained:
ACHN = assay: Growth inhibition of human ACHN cells assessed as cell growth at 0.005 uM incubated for 48 hrs by sulforhodamine B assay relative to control; format: functional; details: read-out: Activity
SF-268 = assay: Growth inhibition of human SF268 cells assessed as cell growth at 0.05 uM incubated for 48 hrs by sulforhodamine B assay relative to control; format: functional; details: SF-268, 48 h, read-out: Activity
SN12C = assay: Growth inhibition of human SN12C cells assessed as cell growth at 0.5 uM incubated for 48 hrs by sulforhodamine B assay relative to control; format: functional; details: read-out: Activity
RPMI-8226 = assay: Growth inhibition of human RPMI8226 cells assessed as cell growth at 5 uM incubated for 48 hrs by sulforhodamine B assay relative to control; format: functional; details: RPMI-8226, 48 h, read-out: Activity
HT-29 [1] = assay: Growth inhibition of human HT-29 cells assessed as cell growth at 50 uM incubated for 48 hrs by sulforhodamine B assay relative to control; format: functional; details: HT-29, 48 h, read-out: Activity
SR = assay: Growth inhibition of human SR cells assessed as cell growth at 5 uM incubated for 48 hrs by sulforhodamine B assay relative to control; format: functional; details: read-out: Activity
MDA-MB-435 = assay: Growth inhibition of human MDA-MB-435 cells assessed as cell growth at 0.005 uM incubated for 48 hrs by sulforhodamine B assay relative to control; format: functional; details: MDA-MB-435, 48 h, read-out: Activity
HOP-92 [2] = assay: Growth inhibition of human HOP92 cells assessed as cell growth at 50 uM incubated for 48 hrs by sulforhodamine B assay relative to control; format: functional; details: HOP-92, 48 h, read-out: Activity
NCI/ADR-RES = assay: Growth inhibition of human NCI/ADR-RES cells assessed as cell growth at 5 uM incubated for 48 hrs by sulforhodamine B assay relative to control; format: functional; details: read-out: Activity
MOLT-4 = assay: Growth inhibition of human MOLT4 cells assessed as cell growth at 0.5 uM incubated for 48 hrs by sulforhodamine B assay relative to control; format: functional; details: MOLT-4, 48 h, read-out: Activity
SNB-75 = assay: Growth inhibition of human SNB75 cells assessed as cell growth at 50 uM incubated for 48 hrs by sulforhodamine B assay relative to control; format: functional; details: SNB-75, 48 h, read-out: Activity
NCI-H522 = assay: Growth inhibition of human NCI-H522 cells assessed as cell growth at 50 uM incubated for 48 hrs by sulforhodamine B assay relative to control; format: functional; details: NCI-H522, 48 h, read-out: Activity
HOP-62 = assay: Growth inhibition of human HOP62 cells assessed as cell growth at 50 uM incubated for 48 hrs by sulforhodamine B assay relative to control; format: functional; details: HOP-62, 48 h, read-out: Activity
BT-549 = assay: Growth inhibition of human BT549 cells assessed as cell growth at 0.5 uM incubated for 48 hrs by sulforhodamine B assay relative to control; format: functional; details: BT-549, 48 h, read-out: Activity
OVCAR-8 [3] = assay: Growth inhibition of human OVCAR8 cells assessed as cell growth at 0.5 uM incubated for 48 hrs by sulforhodamine B assay relative to control; format: functional; details: OVCAR-8, 48 h, read-out: Activity
HT-29 [4] = assay: Growth inhibition of human HT-29 cells assessed as cell growth at 5 uM incubated for 48 hrs by sulforhodamine B assay relative to control; format: functional; details: HT-29, 48 h, read-out: Activity
SF-295 = assay: Growth inhibition of human SF295 cells assessed as cell growth at 0.05 uM incubated for 48 hrs by sulforhodamine B assay relative to control; format: functional; details: SF-295, 48 h, read-out: Activity
HCT-15 = assay: Growth inhibition of human HCT15 cells assessed as cell growth at 5 uM incubated for 48 hrs by sulforhodamine B assay relative to control; format: functional; details: HCT-15, 48 h, read-out: Activity
NCI-H322M = assay: Growth inhibition of human NCI-H322M cells assessed as cell growth at 0.005 uM incubated for 48 hrs by sulforhodamine B assay relative to control; format: functional; details: read-out: Activity
KM12 = assay: Growth inhibition of human KM12 cells assessed as cell growth at 0.05 uM incubated for 48 hrs by sulforhodamine B assay relative to control; format: functional; details: KM12, 48 h, read-out: Activity
Malme-3M [5] = assay: Growth inhibition of human MALME-3M cells assessed as cell growth at 0.05 uM incubated for 48 hrs by sulforhodamine B assay relative to control; format: functional; details: read-out: Activity
U-251 = assay: Growth inhibition of human U251 cells assessed as cell growth at 0.005 uM incubated for 48 hrs by sulforhodamine B assay relative to control; format: functional; details: U-251, 48 h, read-out: Activity
HOP-92 [6] = assay: Growth inhibition of human HOP92 cells assessed as cell growth at 0.005 uM incubated for 48 hrs by sulforhodamine B assay relative to control; format: functional; details: HOP-92, 48 h, read-out: Activity
786-0 = assay: Growth inhibition of human 786-0 cells assessed as cell growth at 0.05 uM incubated for 48 hrs by sulforhodamine B assay relative to control; format: functional; details: 786-0, 48 h, read-out: Activity
IGROV-1 = assay: Growth inhibition of human IGROV1 cells assessed as cell growth at 50 uM incubated for 48 hrs by sulforhodamine B assay relative to control; format: functional; details: IGROV-1, 48 h, read-out: Activity
Hs-578T = assay: Growth inhibition of human Hs 578T cells assessed as cell growth at 0.5 uM incubated for 48 hrs by sulforhodamine B assay relative to control; format: functional; details: read-out: Activity
EKVX = assay: Growth inhibition of human EKVX cells assessed as cell growth at 0.005 uM incubated for 48 hrs by sulforhodamine B assay relative to control; format: functional; details: read-out: Activity
HL-60(TB) = assay: Growth inhibition of human HL-60(TB) cells assessed as cell growth at 0.05 uM incubated for 48 hrs by sulforhodamine B assay relative to control; format: functional; details: HL-60, 48 h, read-out: Activity
OVCAR-4 = assay: Growth inhibition of human OVCAR4 cells assessed as cell growth at 50 uM incubated for 48 hrs by sulforhodamine B assay relative to control; format: functional; details: OVCAR-4, 48 h, read-out: Activity
Malme-3M [7] = assay: Growth inhibition of human MALME-3M cells assessed as cell growth at 0.5 uM incubated for 48 hrs by sulforhodamine B assay relative to control; format: functional; details: read-out: Activity
OVCAR-8 [8] = assay: Growth inhibition of human OVCAR8 cells assessed as cell growth at 5 uM incubated for 48 hrs by sulforhodamine B assay relative to control; format: functional; details: OVCAR-8, 48 h, read-out: Activity
[9] = target: Serine/threonine-protein kinase B-raf (Homo sapiens, UniProt P15056); assay: Inhibition of human BRAF using MEK1 as substrate in presence of [33P]ATP by Hotspot assay
Sequence of Serine/threonine-protein kinase B-raf (P15056 whole entry): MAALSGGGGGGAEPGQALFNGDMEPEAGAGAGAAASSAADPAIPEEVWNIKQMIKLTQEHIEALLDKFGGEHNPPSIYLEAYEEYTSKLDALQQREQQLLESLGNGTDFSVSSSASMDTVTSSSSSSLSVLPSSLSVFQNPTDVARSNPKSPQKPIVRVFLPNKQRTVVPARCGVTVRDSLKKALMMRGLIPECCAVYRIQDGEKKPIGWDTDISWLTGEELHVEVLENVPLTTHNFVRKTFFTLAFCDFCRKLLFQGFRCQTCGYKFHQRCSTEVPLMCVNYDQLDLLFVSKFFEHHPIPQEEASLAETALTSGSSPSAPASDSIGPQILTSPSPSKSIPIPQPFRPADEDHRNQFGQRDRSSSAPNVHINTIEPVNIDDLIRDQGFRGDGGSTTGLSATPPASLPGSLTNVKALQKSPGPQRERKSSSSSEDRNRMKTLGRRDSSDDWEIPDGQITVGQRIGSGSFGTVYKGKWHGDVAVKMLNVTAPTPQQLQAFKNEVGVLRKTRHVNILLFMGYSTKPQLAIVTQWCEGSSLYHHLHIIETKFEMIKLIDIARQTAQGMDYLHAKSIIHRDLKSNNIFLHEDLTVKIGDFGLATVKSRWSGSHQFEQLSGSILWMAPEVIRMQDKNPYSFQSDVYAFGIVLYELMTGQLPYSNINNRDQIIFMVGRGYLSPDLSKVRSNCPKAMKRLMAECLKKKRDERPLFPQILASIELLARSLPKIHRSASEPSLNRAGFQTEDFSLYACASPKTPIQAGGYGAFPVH

MDA-MB-468 = assay: Growth inhibition of human MDA-MB-468 cells assessed as cell growth at 0.1 uM incubated for 48 hrs by sulforhodamine B assay relative to control; format: functional; details: MDA-MB-468, 48 h, read-out: Activity
K562 = assay: Growth inhibition of human K562 cells assessed as cell growth at 100 uM incubated for 48 hrs by sulforhodamine B assay relative to control; format: functional; details: K562, 48 h, read-out: Activity

## COc1cc2cc(Oc3ccc(NC(=O)Nc4cccc(C(F)(F)F)c4)cc3)c(C)nc2cc1OC
ACHN
  growth at 0.005 µM: 97%
SF-268
  growth at 0.05 µM: 89%
SN12C
  growth at 0.5 µM: 95%
RPMI-8226
  growth at 5 µM: -25%
HT-29 [1]
  growth at 50 µM: -99%
SR
  growth at 5 µM: -19%
MDA-MB-435
  growth at 0.005 µM: 95%
HOP-92 [2]
  growth at 50 µM: -74%
NCI/ADR-RES
  growth at 5 µM: 11%
MOLT-4
  growth at 0.5 µM: 95%
SNB-75
  growth at 50 µM: -46%
NCI-H522
  growth at 50 µM: -61%
HOP-62
  growth at 50 µM: -85%
BT-549
  growth at 0.5 µM: 86%
OVCAR-8 [3]
  growth at 0.5 µM: 96%
HT-29 [4]
  growth at 5 µM: 11%
SF-295
  growth at 0.05 µM: 91%
HCT-15
  growth at 5 µM: 18%
NCI-H322M
  growth at 0.005 µM: 91%
KM12
  growth at 0.05 µM: 89%
Malme-3M [5]
  growth at 0.05 µM: 96%
U-251
  growth at 0.005 µM: 98%
HOP-92 [6]
  growth at 0.005 µM: 96%
786-0
  growth at 0.05 µM: 82%
IGROV-1
  growth at 50 µM: -14%
Hs-578T
  growth at 0.5 µM: 99%
EKVX
  growth at 0.005 µM: 105%
HL-60(TB)
  growth at 0.05 µM: 101%
OVCAR-4
  growth at 50 µM: -63%
Malme-3M [7]
  growth at 0.5 µM: 108%
OVCAR-8 [8]
  growth at 5 µM: 10%

## COc1cc2cc(Oc3ccc(NC(=O)Nc4ccc(Cl)c(C(F)(F)F)c4)cc3)c(C)nc2cc1OC
[9]
  pIC50: 5.88

## COc1cc2cc(Oc3ccc(NC(=O)Nc4cc(C(F)(F)F)cc(C(F)(F)F)c4)cc3)c(C)nc2cc1OC
MDA-MB-468
  growth at 0.1 µM: 104%
K562
  growth at 100 µM: -61%
